According to patent US9340590B2 (priority 2011, dated 2016):

Columns and labels:
Experiment in all cases: cell-based
[1] = target: hNav1.5 (Homo sapiens, UniProt Q14524); conditions: IWQ Use Nav1.5
[2] = target: hNav1.3 (Homo sapiens, UniProt Q9NY46); conditions: ratio of IWQ Use values; for Nav1.4/Nav1.3: Nav1.4 over Nav1.3; for Nav1.7/Nav1.3: Nav1.7 over Nav1.3
[3] = target: hNav1.7 (Homo sapiens, UniProt Q15858); assay type: cell-based; conditions: ratio of IWQ Use values, Nav1.4 over Nav1.7
hNav1.7, sequence (Q15858 whole entry, looked up): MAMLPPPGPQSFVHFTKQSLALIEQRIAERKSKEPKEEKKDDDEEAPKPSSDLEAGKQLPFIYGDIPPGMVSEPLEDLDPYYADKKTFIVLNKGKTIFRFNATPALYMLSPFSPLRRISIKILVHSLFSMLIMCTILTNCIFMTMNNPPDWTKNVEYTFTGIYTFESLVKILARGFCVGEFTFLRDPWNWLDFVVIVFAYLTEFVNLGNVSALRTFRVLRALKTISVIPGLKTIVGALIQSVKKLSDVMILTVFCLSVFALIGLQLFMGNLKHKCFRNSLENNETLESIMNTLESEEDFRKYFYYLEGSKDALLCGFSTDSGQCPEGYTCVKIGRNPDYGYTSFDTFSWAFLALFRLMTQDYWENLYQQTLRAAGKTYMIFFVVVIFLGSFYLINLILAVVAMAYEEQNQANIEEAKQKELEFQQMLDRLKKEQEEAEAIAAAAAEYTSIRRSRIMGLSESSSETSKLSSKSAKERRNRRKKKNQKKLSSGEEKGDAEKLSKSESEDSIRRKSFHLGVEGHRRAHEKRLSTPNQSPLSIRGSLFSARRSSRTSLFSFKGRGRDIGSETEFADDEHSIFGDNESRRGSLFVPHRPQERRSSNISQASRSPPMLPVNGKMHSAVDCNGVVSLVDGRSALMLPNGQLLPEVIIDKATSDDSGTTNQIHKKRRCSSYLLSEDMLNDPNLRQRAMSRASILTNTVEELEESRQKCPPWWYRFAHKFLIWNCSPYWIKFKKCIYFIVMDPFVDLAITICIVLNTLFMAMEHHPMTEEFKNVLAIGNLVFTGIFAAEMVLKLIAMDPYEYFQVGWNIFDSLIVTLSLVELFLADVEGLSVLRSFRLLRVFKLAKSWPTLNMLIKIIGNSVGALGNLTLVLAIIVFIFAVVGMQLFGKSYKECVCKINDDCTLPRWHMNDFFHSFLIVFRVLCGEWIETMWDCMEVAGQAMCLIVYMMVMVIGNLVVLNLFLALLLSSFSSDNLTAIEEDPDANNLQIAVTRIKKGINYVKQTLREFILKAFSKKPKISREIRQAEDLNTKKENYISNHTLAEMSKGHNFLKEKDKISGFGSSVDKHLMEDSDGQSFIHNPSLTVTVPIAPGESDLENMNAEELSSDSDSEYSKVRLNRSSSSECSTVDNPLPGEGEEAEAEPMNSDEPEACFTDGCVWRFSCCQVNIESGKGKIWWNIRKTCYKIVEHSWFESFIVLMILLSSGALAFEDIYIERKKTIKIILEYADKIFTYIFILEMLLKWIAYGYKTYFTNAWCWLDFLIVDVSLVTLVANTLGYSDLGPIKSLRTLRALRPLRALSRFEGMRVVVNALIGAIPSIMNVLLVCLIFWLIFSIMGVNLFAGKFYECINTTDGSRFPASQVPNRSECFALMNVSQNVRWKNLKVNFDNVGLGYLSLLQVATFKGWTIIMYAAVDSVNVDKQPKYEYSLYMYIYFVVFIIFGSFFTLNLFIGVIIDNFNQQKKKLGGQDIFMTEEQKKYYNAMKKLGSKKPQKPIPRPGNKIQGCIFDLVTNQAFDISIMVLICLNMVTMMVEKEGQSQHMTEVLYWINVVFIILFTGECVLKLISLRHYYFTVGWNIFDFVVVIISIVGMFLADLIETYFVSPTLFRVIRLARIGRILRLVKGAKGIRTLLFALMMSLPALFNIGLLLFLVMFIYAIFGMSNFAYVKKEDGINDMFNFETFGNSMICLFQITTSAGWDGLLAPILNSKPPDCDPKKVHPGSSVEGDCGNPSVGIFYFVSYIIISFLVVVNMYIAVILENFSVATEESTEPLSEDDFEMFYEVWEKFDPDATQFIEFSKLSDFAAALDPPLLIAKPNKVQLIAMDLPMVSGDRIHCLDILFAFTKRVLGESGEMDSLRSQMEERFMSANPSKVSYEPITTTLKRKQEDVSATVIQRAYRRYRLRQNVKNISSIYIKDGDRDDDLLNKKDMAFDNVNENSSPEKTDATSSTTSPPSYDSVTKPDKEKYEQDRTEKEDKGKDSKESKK

hNav1.3, sequence (Q9NY46 whole entry, looked up): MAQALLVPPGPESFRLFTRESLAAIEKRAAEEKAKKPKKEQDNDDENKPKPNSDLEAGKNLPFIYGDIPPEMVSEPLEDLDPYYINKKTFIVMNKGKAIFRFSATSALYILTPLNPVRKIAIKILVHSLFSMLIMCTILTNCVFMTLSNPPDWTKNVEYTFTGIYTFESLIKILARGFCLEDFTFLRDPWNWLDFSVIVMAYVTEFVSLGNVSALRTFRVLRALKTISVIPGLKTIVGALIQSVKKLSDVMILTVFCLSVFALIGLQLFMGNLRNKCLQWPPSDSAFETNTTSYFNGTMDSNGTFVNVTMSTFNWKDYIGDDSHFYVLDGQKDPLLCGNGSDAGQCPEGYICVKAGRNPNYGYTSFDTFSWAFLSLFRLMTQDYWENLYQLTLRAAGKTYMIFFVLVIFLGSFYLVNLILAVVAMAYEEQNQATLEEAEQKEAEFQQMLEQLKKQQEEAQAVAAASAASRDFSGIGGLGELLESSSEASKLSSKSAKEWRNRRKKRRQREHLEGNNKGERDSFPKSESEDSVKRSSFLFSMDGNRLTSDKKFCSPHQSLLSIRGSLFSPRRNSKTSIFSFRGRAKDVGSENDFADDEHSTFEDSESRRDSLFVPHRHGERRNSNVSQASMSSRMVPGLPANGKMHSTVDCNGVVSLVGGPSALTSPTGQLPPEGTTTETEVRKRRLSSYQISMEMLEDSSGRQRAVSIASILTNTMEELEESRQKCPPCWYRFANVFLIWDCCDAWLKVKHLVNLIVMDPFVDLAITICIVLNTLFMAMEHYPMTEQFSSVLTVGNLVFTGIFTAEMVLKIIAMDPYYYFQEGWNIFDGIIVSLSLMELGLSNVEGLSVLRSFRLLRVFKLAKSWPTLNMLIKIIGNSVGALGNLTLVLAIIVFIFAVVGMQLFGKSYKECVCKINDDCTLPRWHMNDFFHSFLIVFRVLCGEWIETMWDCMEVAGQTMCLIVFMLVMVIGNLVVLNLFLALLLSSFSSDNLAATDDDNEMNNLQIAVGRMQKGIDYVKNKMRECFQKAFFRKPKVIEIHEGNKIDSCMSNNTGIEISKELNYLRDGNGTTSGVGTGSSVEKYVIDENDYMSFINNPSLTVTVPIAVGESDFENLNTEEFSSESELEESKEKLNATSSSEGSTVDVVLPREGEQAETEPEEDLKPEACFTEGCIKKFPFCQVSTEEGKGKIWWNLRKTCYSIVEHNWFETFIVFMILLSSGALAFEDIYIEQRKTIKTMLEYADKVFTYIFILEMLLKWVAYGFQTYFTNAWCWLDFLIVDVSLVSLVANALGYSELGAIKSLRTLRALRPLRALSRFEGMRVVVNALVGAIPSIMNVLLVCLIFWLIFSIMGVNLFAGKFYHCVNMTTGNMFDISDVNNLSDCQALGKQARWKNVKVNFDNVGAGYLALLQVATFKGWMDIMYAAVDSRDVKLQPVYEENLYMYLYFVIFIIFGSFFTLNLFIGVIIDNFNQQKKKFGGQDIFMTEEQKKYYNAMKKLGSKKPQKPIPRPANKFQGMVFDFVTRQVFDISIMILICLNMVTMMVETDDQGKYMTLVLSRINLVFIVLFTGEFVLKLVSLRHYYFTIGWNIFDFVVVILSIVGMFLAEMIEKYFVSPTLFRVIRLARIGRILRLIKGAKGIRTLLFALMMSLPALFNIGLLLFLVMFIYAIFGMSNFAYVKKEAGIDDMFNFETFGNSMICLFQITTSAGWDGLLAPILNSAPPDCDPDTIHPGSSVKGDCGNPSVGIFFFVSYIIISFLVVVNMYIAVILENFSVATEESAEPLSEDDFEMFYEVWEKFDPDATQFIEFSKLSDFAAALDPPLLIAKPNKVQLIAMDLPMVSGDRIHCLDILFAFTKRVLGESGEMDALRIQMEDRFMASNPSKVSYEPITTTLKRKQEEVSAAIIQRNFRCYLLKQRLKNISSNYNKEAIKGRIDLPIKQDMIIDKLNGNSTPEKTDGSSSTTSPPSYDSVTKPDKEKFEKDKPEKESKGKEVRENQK

Row | SMILES | IC50 [1] | Nav1.4/Nav1.3 [2] | Nav1.7/Nav1.3 [2] | Nav1.4/Nav1.7 [3]
1 | CC[C@H](C)[C@@H]1NC(=O)[C@@H]2CSSC[C@@H]3NC(=O)[C@H](C(C)C)NC(=O)[C@H](CC(C)C)NC(=O)[C@H](CC(N)=O)NC(=O)[C@@H]4CCCN4C(=O)[C@H](CCCNC(=N)N)NC(=O)[C@H](CSSC[C@H](NC(=O)[C@@H](N)CC(=O)O)C(=O)N[C@@H](CC(C)C)C(=O)NCC(=O)N[C@H](Cc4ccccc4)C(=O)N[C@@H](CCSC)C(=O)N[C@@H](CCCNC(=N)N)C(=O)N[C@@H](CCCCN)C(=O)N2)NC(=O)[C@H](CSSC[C@@H](C(=O)N[C@@H](CCCCN)C(=O)N[C@@H](Cc2ccc(O)cc2)C(=O)N[C@H](C(=O)N[C@@H](Cc2ccccc2)C(N)=O)C(C)C)NC(=O)[C@H](Cc2c[nH]c4ccccc24)NC(=O)[C@H](CCCCN)NC(=O)[C@H](Cc2c[nH]cn2)NC(=O)[C@H]([C@@H](C)O)NC(=O)[C@H](CCCNC(=N)N)NC(=O)[C@H](CO)NC3=O)NC(=O)[C@H](CCCCN)NC(=O)[C@H](CC(=O)O)NC(=O)[C@H](CC(N)=O)NC(=O)[C@H](CC(=O)O)NC(=O)[C@@H]2CCCN2C1=O [SEQ ID NO: 273] | > 5 µM | – | – | –
2 | CC[C@H](C)[C@@H]1NC(=O)[C@@H]2CSSC[C@@H]3NC(=O)[C@H](C(C)C)NC(=O)[C@H](CC(C)C)NC(=O)[C@H](CC(N)=O)NC(=O)[C@@H]4CCCN4C(=O)[C@H](CCCNC(=N)N)NC(=O)[C@H](CSSC[C@H](NC(=O)[C@@H](N)CC(=O)O)C(=O)N[C@@H](CC(C)C)C(=O)NCC(=O)N[C@@H](Cc4ccc(C(F)(F)F)cc4)C(=O)N[C@@H](CCSC)C(=O)N[C@@H](CCCNC(=N)N)C(=O)N[C@@H](CCCCN)C(=O)N2)NC(=O)[C@H](CSSC[C@@H](C(=O)N[C@@H](CCCCN)C(=O)N[C@@H](Cc2ccc(O)cc2)C(=O)N[C@H](C(=O)N[C@@H](Cc2ccccc2)C(N)=O)C(C)C)NC(=O)[C@H](Cc2c[nH]c4ccccc24)NC(=O)[C@H](CCCCN)NC(=O)[C@H](Cc2c[nH]cn2)NC(=O)[C@H]([C@@H](C)O)NC(=O)[C@H](CCCNC(=N)N)NC(=O)[C@H](CO)NC3=O)NC(=O)[C@H](CCCCN)NC(=O)[C@H](CC(=O)O)NC(=O)[C@H](CC(N)=O)NC(=O)[C@H](CC(=O)O)NC(=O)[C@@H]2CCCN2C1=O [compound 654] | – | 18.4 | 4.4 | 4.1
3 | CC[C@H](C)[C@@H]1NC(=O)[C@@H]2CSSC[C@@H]3NC(=O)[C@H](C(C)C)NC(=O)[C@H](CC(C)C)NC(=O)[C@H](CC(N)=O)NC(=O)[C@@H]4CCCN4C(=O)[C@H](CCCNC(=N)N)NC(=O)[C@H](CSSC[C@H](NC(=O)[C@@H](N)CC(=O)O)C(=O)N[C@@H](CC(C)C)C(=O)NCC(=O)N[C@@H](Cc4ccc(F)cc4)C(=O)N[C@@H](CCSC)C(=O)N[C@@H](CCCNC(=N)N)C(=O)N[C@@H](CCCCN)C(=O)N2)NC(=O)[C@H](CSSC[C@@H](C(=O)N[C@@H](CCCCN)C(=O)N[C@@H](Cc2ccc(O)cc2)C(=O)N[C@H](C(=O)N[C@@H](Cc2ccccc2)C(N)=O)C(C)C)NC(=O)[C@H](Cc2c[nH]c4ccccc24)NC(=O)[C@H](CCCCN)NC(=O)[C@H](Cc2c[nH]cn2)NC(=O)[C@H]([C@@H](C)O)NC(=O)[C@H](CCCNC(=N)N)NC(=O)[C@H](CO)NC3=O)NC(=O)[C@H](CCCCN)NC(=O)[C@H](CC(=O)O)NC(=O)[C@H](CC(N)=O)NC(=O)[C@H](CC(=O)O)NC(=O)[C@@H]2CCCN2C1=O [compound 655] | – | 26.6 | 3.8 | 7.1
